From patent US4837227A, “Aminoalkylthiodibenzoxepins and pharmaceutical use” (Hoechst-Roussel Pharmaceuticals, Inc., priority 1985, dated 1989)
Where a name gives a salt, the structure may show the parent alone. Read-outs that look alike come from different tables or passages of the source.

Tests used:
[1] = tested on: supramaximal electro shock in mice; assay: protection from supramaximal electro shock in mice (anticonvulsant); format: in vivo; details: Mus musculus, ip, intraperitoneal dose, read-out: ED50, approximately 50% protective from the effect of supramaximal electro shock
Source text: Compounds of the present invention are still further useful as anticonvulsant agents for mammals, as determined by the method of Woodbury, L. A. and Davenport, V. D., in Arch. Int. Pharmacodynam, Vol. 92. (1952) at pages 97 to 107. Thus, for instance, the following intraperitoneal doses at which an approximately 50% protective (ED50) from the effect of supramaximal electro shock in mice are: […]

[2] = tested on: tetrabenazine-induced depression (ptosis) in mice; assay: inhibition of tetrabenazine-induced depression (ptosis) in mice; format: in vivo; details: Mus musculus, read-out: ED50, 50% inhibition of the ptosis of the tetrabenazine-induced depression
Source text: Thus, for instance, the intraperitoneal dose at which the following compounds effect a 50% inhibition of the ptosis of the tetrabenazine-induced depression (ED50) in mice are: […]

[3] = tested on: climbing behavior induced by apomorphine in mice; assay: apomorphine-induced climbing mice assay (neuroleptic activity); format: in vivo, CD-1 male mice; details: intraperitoneally 30 minutes prior to apomorphine 1.5 mg/kg s.c.
Description: Central Nervous System Depressant (Neuroleptic) Activity Climbing Mice Assay
The subject CD-1 male mice (23-27 grams) were group-housed under standard laboratory conditions. The mice were individually placed in wire mesh stick cages (4"×4"×10") and were allowed one hour for adaptation and exploration of the new environment. Then apomorphine was injected subcutaneously at 1.5 mg/kg, a dose causing climbing in all subjects for 30 minutes. Compounds to be tested for neuroleptic activity were injected intraperitoneally 30 minutes prior to the apomorphine challenge at a screening dose of 10 mg/kg.
For evaluation of climbing, 3 readings were taken at 10, 20 and 30 minutes after apomorphine administration according to the following scale:
Mice consistently climbing before the injection of apomorphine were discarded.
With full-developed apomorphine climbing, the animals were hanging onto the cage walls, rather motionless, over longer periods of time. By contrast, climbs due to mere motor stimulation usually only lasted a few seconds.
The climbing scores were individually totaled (maximal score: 6 per mouse over 3 readings) and the total score of the control group (vehicle intraperitineally -- apomorphine subcutaneously) was set to 100%.

[4] = tested on: tail flick in mice; assay: modified D'Amour-Smith analgesia (tail flick) assay; format: in vivo, male mice (Charles River: CD-1); details: generally s.c.
Source text: Analgesic Activity Modified D'Amour-Smith Assay (Tail Flick)
Male mice (Charles River: CD-1) from 18-30 grams were used as test subjects. The mouse tails were individually placed on a "Vee" block and, subsequently, a painful stimulus was produced by an intense light beam (Emdie Instrument Co., Louisa, VA). The subject quickly responds to the noxious stimuli by flicking its tail. The reaction time, the interval between stimulus onset and response, was automatically measured in 1/10-second increments. Prior to drug administration, two control readings of reaction time were measured for each subject with approximately 15 minutes separating the tests. Subjects were discarded if their reaction times in these control tests varied by more than one second or if their inclusion in the study group caused the spread of reaction time to exceed three seconds.
The mean response time (x) and the standard deviation (SD) of the values were then calculated for each set of control scores. The formula presented below was used to calculate cut-off values (C.O.) for each set of control scores and the average of these C.O. values was used to determine evidence of analgesic activity in subsequent drug testing.
The C.O. value was actually a determination of a reaction time which exceeds the mean by two standard deviations. Any reaction time, in subsequent drug tests, which was greater than the C.O. value, therefore exceeds 95% of a normal Gaussian distribution and was called a "positive response" indicative of analgesic activity. Latency changes were calculated by subtracting the tail flick latency of the average control times from the latency after treatment for each mouse.
Compounds were tested in treatment groups of ten subjects and drugs, prepared in distilled water, were generally administered subcutaneously (s.c.) in volumes equivalent to 10 cc/kg. The initial testing was usually in the form of a time response at intervals of 15, 30, 45 and 60 minutes after dosing. If analgesic activity was still increasing at 60 minutes, then two additional groups were tested at 90 minute and 120 minute post dosing.
A time response indicated the period of greatest analgesic effect after dosing. Percent analgesic activity was calculated in the following manner: [formula] Grp.=Group Veh.=Vehicle
The ED50 was determined at the peak time of drug activity. A minimum of three dose groups were employed. Drugs were administered in a randomized manner. ED50 's were calculated using Litchfield-Wilcoxon (LITWL on PDP II) computer analysis.

[5] = tested on: phenyl-p-quinone writhing in mice; assay: phenyl-p-quinone writhing assay in mice (analgesia); format: in vivo; details: Mus musculus, sc, subcutaneous dose, read-out: ED50, approximately 50% inhibition of writhing
Source text: Compounds of the invention are further useful as analgesic agents due to their ability to alleviate pain in mammals. […] Exptl. Biol Med., 95 729 (1957)]. Thus for instance, the subcutaneous dose effecting an approximately 50% inhibition of writhing (ED50) in mice produced in this assay is as follows: […]

[6] = stability study, gas chromatographic assay (acid stability); format: physicochemical
Description: Gas chromatographic conditions were established under which 2-fluoro-11-[β-(dimethylamino)ethoxy]dibenz[b,f]oxepin (as the hydrobromide or hydrochloride salts), 2-fluoro-11-[β-(dimethylamino)ethylthio]dibenz[b,f]oxepin (as the hydrobromide salt) and 10,11-dihydro-10-oxodibenz[b,f]oxepin were separated:
Column-Glass 2m×2mm ID packed with 3% OV-225 on 80/100 supelcoport
Temperature: Isothermal at 220° C.
Flow Rate: He at 45 ml/min
Instrument: Perkin-Elmer 3920B
Solutions of 2-fluoro-11-[β-(dimethylamino)ethoxy]dibenz[b,f]oxepin and 2-fluoro-11-[β-(dimethylamino)ethylthio]dibenz[b,f]oxepin were prepared in water at a concentration of 200 mg/100 ml. Portions of these stock aqueous solutions were used in each of the following experiments. All aqueous samples were prepared for gas chromotographic (GC) injection by first adding sodium carbonate solution to adjust the pH to 9 and then extracting with ethyl acetate. The ethyl acetate layer was separated and 2.0μ of it were injected.
II. Acidification of 2.0 ml of 2-fluoro-11-[β-(dimethylamino)ethoxy]dibenz[b,f]oxepin stock solution with 0.2 ml of concentrated hydrochloric acid and standing at ambient temperature produced increases in the levels of 10,11-dihydro-10-oxodibenz[b,f]oxepin beyond the 0.2% level initially contaminating the sample of 2-fluoro-11-[β-(dimethylamino)ethoxy]dibenz[b,f]oxepin.
III. Simultaneous experiments were performed using 2.0 ml of each stock solution of […] and 2-fluoro-11-[β-(dimethylamino)ethylthio]dibenz[b,f]oxepin in individual test tubes. Acidification of each solution with 0.2 ml of concentrated hydrochloric acid and side by side warming (not reflux) for 2 minutes (electric heat gun) produced a visible change.

[7] = M. Protvia, et al. Il Farmaco XXI, 98 (1966); cited from earlier work
[8] = 0.2 ml concentrated hydrochloric acid, warming (not reflux) for 2 minutes

Question: With `CN(C)CCSC1Cc2ccccc2Oc2ccc(Cl)cc21.O=C(O)C(=O)O` (stereo not drawn) [2-chloro-10,11-dihydro-11-[β-(dimethylamino)-ethylthio]-dibenz[b,f]oxepin oxalate] as the compound, how does the ED50 [1] read?
Answer: The ED50 was 19.4 mg/kg.

Question: And the ED50 ([2]; ip, intraperitoneal dose)?
Answer: Its ED50 is 3.5 mg/kg.

Question: For `CN(C)CCSC1=Cc2ccccc2Oc2ccc(Cl)cc21` [2-chloro-11-[β-(dimethylamino)ethylthio]dibenz[b,f]oxepin], which “Activity (% Inhibition of Climbing)” value ([3]; 10 mg/kg) is on record?
Answer: The value was 5%.

Question: And the “Analgesic Activity (%)” value ([4]; dose 25 mg/kg)?
Answer: Its value is 20%.

Question: What does the source list for `CN(C)CCSC1Cc2ccccc2Oc2ccc(F)cc21.O=C(O)C(=O)O` (stereo not drawn) [2-fluoro-10,11-dihydro-11-[β-(dimethylamino)ethylthio]dibenz[b,f]oxepin oxalate]?
Answer: ED50 [1]: 9 mg/kg; ED50 ([2]; oral dose (footnote *)): 7.6 mg/kg; ED50 [5]: 1.9 mg/kg

Question: Which “visible change of the acidified solution on warming” value [6, 8] does the source give for `CN(C)CCOC1=Cc2ccccc2Oc2ccc(F)cc21` [2-fluoro-11-[β-(dimethylamino)ethoxy]dibenz[b,f]oxepin] here?
Answer: Its value is “became white and cloudy”.

Question: And the “decomposition on reflux after addition of concentrated hydrochloric acid” value ([6]; 25 ml stock + 2.5 ml concentrated hydrochloric acid, further reflux 10 mins, to 10,11-dihydro-10-oxodibenz[b,f]oxepin)?
Answer: The value was “complete decomposition”.

Question: What about the “decomposition on reflux of aqueous stock solution” value ([6]; water, 200 mg/100 ml, reflux, 45 minutes) of the same compound?
Answer: The value was “no apparent decomposition”.

Question: And the degraded at 2 min ([6]; water, concentrated hcl, 0.2 ml concentrated hydrochloric acid, warming (not reflux) for 2 minutes, read-out: decomposed to 10,11-dihydro-10-oxodibenz[b,f]oxepin by GC analysis)?
Answer: Its degraded at 2 min is 87.2%.

Question: And the degraded at 2 min ([6]; water, concentrated hcl, 2 min, ambient temperature, 2.0 ml stock + 0.2 ml concentrated hydrochloric acid, product 10,11-dihydro-10-oxodibenz[b,f]oxepin, read-out: % Increase in decomposition product)?
Answer: The degraded at 2 min was 0.35%.

Question: And the degraded at 1 h ([6]; water, concentrated hcl, 60 min, ambient temperature, 2.0 ml stock + 0.2 ml concentrated hydrochloric acid, product 10,11-dihydro-10-oxodibenz[b,f]oxepin, read-out: % Increase in decomposition product)?
Answer: The degraded at 1 h was 2.16%.

Question: And the degraded at 140 min ([6]; water, concentrated hcl, 140 min, ambient temperature, 2.0 ml stock + 0.2 ml concentrated hydrochloric acid, product 10,11-dihydro-10-oxodibenz[b,f]oxepin, read-out: % Increase in decomposition product)?
Answer: Its degraded at 140 min is 3%.

Question: What does the source list for `Br.CN(C)CCSC1=Cc2ccccc2Oc2ccc(F)cc21` [2-fluoro-11-[β-(dimethylamino)ethylthio]dibenz[b,f]oxepin hydrobromide]?
Answer: ED50 [1]: 9.2 mg/kg; ED50 ([2]; ip, intraperitoneal dose): 4.3 mg/kg

Question: For `CN(C)CCSC1=Cc2ccccc2Oc2ccc(F)cc21` [2-fluoro-11-[β-(dimethylamino)ethylthio]dibenz[b,f]oxepin], which “decomposition by GC analysis (in words)” value [6, 8] is on record?
Answer: The value was “did not decompose”.

Question: And the “visible change of the acidified solution on warming” value [6, 8]?
Answer: The value was “remained clear and colorless”.

Question: And the “Activity (% Inhibition of Climbing)” value ([3]; 10 mg/kg)?
Answer: The value was 10%.

Question: What about the “Analgesic Activity (%)” value ([4]; dose 23.9 mg/kg) of the same compound?
Answer: Its value is 50%.

Question: For `CNCCSC1=Cc2ccccc2Oc2ccc(F)cc21.O=C(O)/C=C\C(=O)O` [2-fluoro-11-[β-(methylamino)ethylthio]dibenz[b,f]oxepin maleate], which ED50 [1] is on record?
Answer: Its ED50 is 9.9 mg/kg.

Question: And the ED50 ([2]; ip, intraperitoneal dose)?
Answer: Its ED50 is 0.3 mg/kg.

Question: What about the ED50 [5] of the same compound?
Answer: Its ED50 is 2.3 mg/kg.

Question: For `CNCCSC1=Cc2ccccc2Oc2ccc(F)cc21` [2-fluoro-11-[β-(methylamino)ethylthio]dibenz[b,f]oxepin], which “Analgesic Activity (%)” value ([4]; dose 11.3 mg/kg) is on record?
Answer: The value was 50%.

Question: With `CN(C)CCSC1Cc2ccccc2Oc2ccccc21` (stereo not drawn) [10,11-dihydro-10-[β-(dimethylamino)ethylthio[dibenz[b,f]oxepin oxalate] as the compound, how does the ED50 [1] read?
Answer: Its ED50 is 7.7 mg/kg.

Question: What about the ED50 ([2]; ip, intraperitoneal dose) of the same compound?
Answer: The ED50 was 7 mg/kg.

Question: What does the source list for `CNCCSC1=Cc2ccccc2Oc2ccccc21.O=C(O)C(=O)O` [10-[β(methylamino)ethylthio]dibenz[b,f]oxepin oxalate]?
Answer: ED50 [1]: 21 mg/kg; ED50 ([2]; ip, intraperitoneal dose): 3.4 mg/kg; ED50 [5]: 2.3 mg/kg

Question: Which “Activity (% Inhibition of Climbing)” value ([3]; 15 mg/kg) does the source give for `CN(C)CCSC1=Cc2ccccc2Oc2ccccc21` [10-[β-(dimethylamino)ethylthio]dibenz[b,f]oxepin] here?
Answer: The value was 20%.

Question: What about the “Analgesic Activity (%)” value ([4]; dose 25 mg/kg) of the same compound?
Answer: The value was 30%.

Question: With `CNCCSC1=Cc2ccccc2Oc2ccccc21` [10-[β-(methylamino)ethylthio]dibenz[b,f]oxepin] as the compound, how does the “Analgesic Activity (%)” value ([4]; dose 11.6 mg/kg) read?
Answer: Its value is 50%.

Question: Which “Activity (% Inhibition of Climbing)” value ([3]; 10 mg/kg) does the source give for `CSc1ccc2c(c1)C(SCCN(C)C)=Cc1ccccc1O2` [11-[β-(dimethylamino)ethylthio]-2-(methylthio)dibenz[b,f]oxepin] here?
Answer: Its value is 18%.

Question: What about the “Analgesic Activity (%)” value ([4]; dose 14.1 mg/kg) of the same compound?
Answer: Its value is 50%.

Question: For `CN(C)CCOC1Cc2ccccc2Sc2ccc(Cl)cc21` (centres unmarked) [Amethoclothepine], which “central depressant activity (in words)” value [7] is on record?
Answer: Its value is “central depressant activity”.
